{"source": "paper PMC12045974", "about": "“T cell toxicity induced by tigecycline binding to the mitochondrial ribosome” (Nature Communications, 2025)", "key": {"CD4+ and CD8+ T cells": {"test_system": "CD4+ and CD8+ T cells", "assay": "Mitochondrial mass by MitoTracker Green staining", "format": "cell-based, human", "settings": "for mitochondrial mass (MitoTracker Green): 10 μM, after 24 h or 7 days of treatment", "experimental": "After thawing frozen PBMCs, cells were washed with RPMI complemented with 10% FBS, 2.05 mM L-glutamine (Sigma), and 55 μM 2-ME (Gibco) and rested at 37 °C (5% CO2) for 30 min. 250,000 cells per well were seeded in 96-well U-bottom plates with/without Human T-Activator CD3/CD28 beads (Invitrogen) at a 1:1 ratio and 10 ng/ml IL-2 (Proteintech) in RPMI-1640 medium mentioned above. At the same time, antibiotics were added. For the short-term activation assay, cells were harvested 18 h post-stimulation and stained with Aqua fixable live/dead dye (Invitrogen) and surface markers. For the proliferation assays, cells were stained with CFSE (eBioscience) or Cell Trace Violet (ThermoFisher Scientific) dyes before seeding and stimulation, according to the manufacturer’s recommendations. For TCR priming experiments, tigecycline was added at 0, 24 or 72 h post-activation. For mitochondrial mass measuring, cells were stained with Mitotracker Green Fm Dye (Thermo Fisher Scientific) after incubation with Tigecycline. After incubation for 6 days with a half medium (complete, with antibiotics and IL-2) change after 3 days, cells were harvested via centrifugation, and stained with live/dead dye and surface markers for analysis by flow cytometry. The Foxp3/Transcription Factor Staining Buffer Set (Invitrogen) was used to fix cells according to the manufacturer’s instructions. The FACS gating strategy is shown in Supplementary Fig. 2D. Flow cytometry was carried out on a BD Celesta (BD Biosciences) and analyzed in FlowJo (TreeStar) software."}, "OXPHOS complexes": {"test_system": "OXPHOS complexes", "assay": "Western blotting for OXPHOS complexes in Jurkat T cells and PBMCs", "format": "cell-based", "settings": "Jurkat T cells and human PBMCs, 5 μM, 6 days", "experimental": "Human PBMCs and Jurkat T cells were seeded in 6-well plates at a density of 1 million cells/ml and incubated with or without antibiotics in RPMI-1640 medium (with 10% FBS, 2.05 mM L-glutamine (Sigma), and 55 μM 2-ME (Gibco)) for 6 days. After centrifugation, cells were lysed in RIPA buffer containing protease and phosphatase inhibitors (cOmplete and PhosSTOP, respectively, Roche). Protein concentrations were determined by BCA (Pierce, Thermo Fisher). Protein samples were resuspended with 1× NuPAGE LDS sample buffer (Thermo Fisher) supplemented with 100 mM dithiothreitol, heated for 10 min at 75 °C, and separated on NuPAGE 4–12% Bis-Tris mini gels (Thermo Fisher) using NuPAGE 1× MES (Thermo Fisher) running buffer, and transferred to PVDF membranes (0.45 μm, Immobilon-P, Sigma) using the iBlot2 system (Invitrogen). Non-specific binding was blocked with TBST containing 5% non-fat milk, followed by overnight incubation at 4 °C with antibodies against Total OXPHOS Human WB Antibody Cocktail (Abcam, Cambridge, UK), followed by HRP-conjugated secondary antibodies for 1 h at room temperature. β-actin, HSP60, and GAPDH (Cell Signaling Technology) were used as loading control. Proteins were detected using Clarity Western ECL Substrate (Bio-Rad, 170-5061). For an example of presentation of full scan blots, see the Source Data file."}, "[1]": {"test_system": "mitochondrial translation in CD4+ and CD8+ T cells", "assay": "Mito-FUNCAT-FACS assay of mitochondrial translation on activated T cells", "format": "cell-based, human", "settings": "for mitochondrial translation (fold change relative to negative control): per PBMC donor", "experimental": "Thawed PBMCs were washed with RPMI ( + 10% FBS, 2.05 mM L-glutamine (Sigma), and 55 μM 2-ME (Gibco)) before resting at 37 °C (5% CO2) for 30 min. After counting, cells were resuspended in FACS buffer at a density of 5 × 10^7 cells/ml. T cells were isolated using EasySep™ Human T Cell Isolation Kit (Stemcell Technologies). Purified T cells were counted and 85,000 cells per well seeded onto 96-well U-bottom plates with/without Human T-Activator CD3/CD28 beads (Invitrogen) at a 1:2.8 cell:bead ratio and 10 ng/ml IL-2 (Proteintech) in RPMI-1640 ( + 10% FBS, 2.05 mM L-glutamine (Sigma), and 55 μM 2-ME (Gibco)) for 48 h. To assess mitochondrial translation, activated T cells were washed twice with methionine/cysteine/pyruvate-free DMEM and incubated in methionine-depletion medium (DMEM supplemented with 10% dialyzed FBS, 1× GlutaMAX, 1× sodium pyruvate, and 0.2 mM L-cystine) for 30 min at 37 °C. To inhibit cytosolic translation, anisomycin (100 μg/mL) was added to the medium. For mitochondrial translation inhibition, 100 µg/mL chloramphenicol (309 μM, positive control) or tigecycline (2.5−10 μM) were added to the medium. Cells were then labeled with 50 μM L-homopropargylglycine (HPG) for 3 h at 37 °C, during which time the medium still contained antibiotics.\nFollowing HPG labeling, cells were collected and stained with surface markers (CD4, CD8). Cells were pre-permeabilized with 0.005% digitonin in mitochondria-protective buffer (10 mM HEPES/KOH, 10 mM NaCl, 5 mM MgCl2, 300 mM sucrose, pH 7.5) for 3 min, fixed with 4% paraformaldehyde for 10 min, and fully permeabilized with 0.25% Triton X-100 for 5 min. After blocking with 5% BSA for 10 min, incorporated HPG was detected via copper-catalyzed cycloaddition using 0.05 μM Alexa Fluor 488 picolyl azide (Click-iT™ Plus Alexa Fluor™ 488 Picolyl Azide Toolkit, Gibco) for 30 min at room temperature. Subsequently, the reaction cocktail was removed and cells resuspended in FACS buffer. Flow cytometry was carried out on a BD Celesta (BD Biosciences) and analyzed in FlowJo (TreeStar). Data are presented as fold change relative to negative controls."}}, "note": "“And” between values parts separate entries of the source, which are not always exact repeats. Equal entries are not always repeated."}
{"smiles": "CN(C)c1cc(NC(=O)CNC(C)(C)C)c(O)c2c1C[C@H]1C[C@H]3[C@H](N(C)C)C(O)=C(C(N)=O)C(=O)[C@@]3(O)C(O)=C1C2=O", "note": "[Tigecycline, tigecycline]", "values": [{"measurement": "mitochondrial mass (MitoTracker Green)", "setting": "CD4+ and CD8+ T cells", "value": "no significant changes in mitochondrial mass"}, {"measurement": "mitochondrial mass (MitoTracker Green)", "setting": "CD4+ and CD8+ T cells; listed as tigecyline", "value": "comparable mitochondrial mass"}, {"measurement": "mitochondrial mass relative to Unstim (=1), sheet sFig-1E+F", "setting": "CD4+ and CD8+ T cells; 24H, CD4, Stim-10µM, per PBMC donor", "value": "1.522 and 1.33 and 0.8198"}, {"measurement": "mitochondrial mass relative to Unstim (=1), sheet sFig-1E+F", "setting": "CD4+ and CD8+ T cells; 24H, CD4, Unstim-10µM, per PBMC donor", "value": "1.004 and 0.6673 and 1.041"}, {"measurement": "mitochondrial mass relative to Unstim (=1), sheet sFig-1E+F", "setting": "CD4+ and CD8+ T cells; 24H, CD8, Unstim-10µM, per PBMC donor", "value": "0.5804 and 1.017 and 1.063"}, {"measurement": "mitochondrial mass relative to Unstim (=1), sheet sFig-1E+F", "setting": "CD4+ and CD8+ T cells; 7 days, CD4, STI 24H, per PBMC donor", "value": "2.7235 and 3.361 and 2.725"}, {"measurement": "mitochondrial mass relative to Unstim (=1), sheet sFig-1E+F", "setting": "CD4+ and CD8+ T cells; 7 days, CD4, STI 72H, per PBMC donor", "value": "2.708 and 3.517 and 2.769"}, {"measurement": "mitochondrial mass relative to Unstim (=1), sheet sFig-1E+F", "setting": "CD4+ and CD8+ T cells; 7 days, CD4, Stim-10µM, per PBMC donor", "value": "2.414 and 2.323 and 2.6393"}, {"measurement": "mitochondrial mass relative to NO STI (=1), sheet sFig-1E+F", "setting": "CD4+ and CD8+ T cells; 7 days, CD8, STI-10µM, per PBMC donor", "value": "1.791 and 3.1924 and 2.433"}, {"measurement": "levels of subunits of complex I (NDUFB8), complex III (UQCRCII) and complex IV (COX2)", "setting": "OXPHOS complexes", "value": "drop"}, {"measurement": "levels of subunits of complex II (SDHB) and complex V (ATP5A)", "setting": "OXPHOS complexes", "value": "less affected"}, {"measurement": "mitochondrial translation (fold change relative to negative control)", "setting": "[1]; CD4, 2.5µM", "value": "0.947 and 0.7157 and 0.7389"}, {"measurement": "mitochondrial translation (fold change relative to negative control)", "setting": "[1]; CD4, 5µM", "value": "0.8077 and 0.645 and 0.697"}, {"measurement": "mitochondrial translation (fold change relative to negative control)", "setting": "[1]; CD4, 10µM", "value": "0.7443 and 0.3992 and 0.6483 and 0.5621"}, {"measurement": "mitochondrial translation (fold change relative to negative control)", "setting": "[1]; CD8, 2.5µM", "value": "0.9388 and 0.7432 and 0.8324"}, {"measurement": "mitochondrial translation (fold change relative to negative control)", "setting": "[1]; CD8, 5µM", "value": "0.8134 and 0.656 and 0.7756"}, {"measurement": "mitochondrial translation (fold change relative to negative control)", "setting": "[1]; CD8, 10µM", "value": "0.7567 and 0.4193 and 0.7571 and 0.5029"}, {"measurement": "inhibition of mitochondrial translation", "setting": "[1]; TCR-stimulated CD4+ and CD8+ T cells, 2.5-10 μM", "value": "dose-dependent inhibition of mitochondrial translation"}]}
